Experimental findings from PubChem BioAssay (NCI) are described below.

Test in all cases: growth of human tumour cells (NCI), 48 h
The test system of experiment [1] is U251 CNS.
Experiment [2] relates to CCRF-CEM leukemia.
In experiment [3] the test system is SNB-19 CNS.
Experiment [4] deals with NCI-H460 lung.
Experiment [5] deals with SF-295 CNS.
Experiment [6] deals with UACC-62 melanoma.
The subject of experiment [7] is UACC-257 melanoma.
Experiment [8] relates to UO-31 renal.
Experiment [9] has as its system OVCAR-3 ovarian.
The test system of experiment [10] is HOP-62 NSCLC.

Several values for one entry are separate records, joined by “and”; a condition that tells them apart may be missing. Identical values can stand only once.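 Where inhibition never reached the appropriate level, the endpoint shown equals the highest concentration tested. Otherwise, values were interpolated linearly from a five-concentration, 48-hour dose response in 96-well plates. GI50: concentration for 50% inhibition of growth. TGI: concentration producing complete growth inhibition.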

As to `CC(=O)O[C@H]1CCc2c(cc(N)c3c2C(=O)C[C@]2(C)C([C@H](C)CCCC(C)C)CCC32C)C1(C)C` (some centres not stated), the TGI in experiment [1], in [2], in experiment [3], in experiment [4], in experiment [5] and in experiment [6] was more than 100 µM in each case. For the same molecule, the TGI in [7], in experiment [8], in [9] and in experiment [10] was more than 100 µM throughout.
For the molecule `Nc1ccc(/C=C/C(=O)NCc2cc3cc(-c4ccc(C(=O)N5CCC(F)(F)CC5)cc4)cc(-c4ccc(F)cc4)c3o2)cn1`, the GI50 was 1160 nM in [1]; 83 nM in experiment [2]; 3960 nM in experiment [3]; 10900 nM in experiment [4]; more than 100000 nM in [6]; more than 100 µM in experiment [7]. The values for the GI50 in experiment [8], in experiment [9] and in [10] were more than 47600 nM, more than 39100 nM and more than 59300 nM, respectively. Further, the TGI in [1], in experiment [2], in experiment [3], in [4], in experiment [5] and in experiment [6] was more than 100 µM each time. Moreover, the TGI in [7], in experiment [8], in [9] and in [10] was more than 100 µM each time.
In the case of `C=CC(OCC)(OCC)OCC`, the TGI in experiment [1], in [2], in experiment [3], in experiment [4], in [5] and in experiment [6] was more than 100 µM throughout. Further, the TGI in [7], in experiment [8], in experiment [9] and in experiment [10] was more than 100 µM in each case.
Turning to `CCC1=CC2CN(C1)Cc1c([nH]c3ccccc13)[C@@](C(=O)OC)(c1cc3c(cc1OC)N(C)[C@H]1[C@@](O)(C(=O)OC)[C@H](OC(C)=O)[C@]4(CC)C=CCN5CC[C@]31[C@@H]54)C2` (some centres not stated), the GI50 in [1] was less than 5 nM; in experiment [2] it was 8.79 nM; in experiment [3], 23.8 nM; in experiment [4], 7.35 nM; in experiment [5], 15.1 nM and 23.1 nM; in experiment [6], 5.89 nM. Also, the GI50 is 7.54 µM in experiment [7]; 5450 nM and 1060 nM in experiment [8]; less than 5 nM in experiment [9]; 13.5 nM in experiment [10]. Moreover, the TGI is 6.71 µM and 21 µM in experiment [1]; 20.2 µM in [2]; more than 100 µM in experiment [3]; 50 µM and > 100 µM in experiment [5]; 50 µM and > 100 µM in [6]; 33.3 µM in experiment [7]. The TGI in [8] was 26.6 µM and 76.9 µM; in [9] it was 0.00611 µM and 0.0135 µM; in experiment [10], 43.8 µM.
Regarding `COC(=O)C(/C(=N\O)C(=O)Nc1cccc(Cl)c1C)c1cnc2ccccc2n1` (configuration not stated), the TGI in [1], in [2], in experiment [3], in experiment [4], in experiment [5] and in [6] was more than 100 µM each time. The TGI in experiment [7], in [8], in [9] and in experiment [10] was more than 100 µM in each case.
`O=c1c(F)cn(Cc2ccccc2CCl)c(=O)n1Cc1ccccc1CCl`: the GI50 in [1] was 1550 nM; in experiment [2], 1040 nM; in experiment [3], 3500 nM; in experiment [4], 2080 nM; in experiment [5], 2140 nM; in [6] it was 1330 nM. The GI50 in experiment [8] was 1990 nM; in experiment [9], 1540 nM; in experiment [10] it was 2350 nM. Besides, the TGI amounted to 3.49 µM in experiment [1]; 3.5 µM in experiment [2]; 13.3 µM in experiment [3]; 4.9 µM in experiment [4]; 6.16 µM in experiment [5]; 2.94 µM in experiment [6]. In addition, the TGI in experiment [7] is 2.44 µM; in experiment [8], 5.3 µM; in experiment [9], 3.07 µM; in experiment [10], 4.84 µM.
With `C/C(=N/NC(=O)C[N+](C)(C)C)C(CN(C)C)C(=O)Nc1ccccc1` (configuration not stated), the TGI in [1], in [2], in experiment [3], in [4], in [5] and in [6] was more than 100 µM each time. For the same molecule, the TGI in [7], in experiment [8], in [9] and in experiment [10] was more than 100 µM throughout.
Take `CSC1=Nc2ccccc2N=C(c2ccc(Cl)cc2)C1`: the TGI in [1], in experiment [2], in [3], in experiment [4], in [5] and in experiment [6] was more than 100 µM throughout. In addition, the TGI in [7] was 84.9 µM; in experiment [8] it was more than 100 µM; in experiment [9], more than 100 µM; in experiment [10], more than 100 µM.
As for `CNC(=O)c1nn(C)c2c1C(C)(C)Cc1cnc(Nc3ccc(N4CCN(C)CC4)cc3)nc1-2`, the GI50 is 846 nM in experiment [1]; 1580 nM in experiment [2]; 322 nM in experiment [3]; 408 nM in experiment [4]; 1090 nM in experiment [5]; 486 nM in [6]. Also, the GI50 in experiment [7] is 0.863 µM; in experiment [8], 169 nM; in [9], 966 nM; in experiment [10] it was 435 nM. Besides, the TGI in experiment [1], in experiment [2], in experiment [3], in experiment [4], in experiment [5] and in [6] was more than 10 µM each time. The TGI is more than 9.15 µM in [7], 2.39 µM in experiment [8], more than 10 µM in experiment [9] and 9.84 µM in experiment [10].
